IC50 data for 20 molecules are collected here from patent publication US20250221996A1, “HETEROCYCLIC COMPOUNDS, COMPOSITIONS THEREOF, AND METHODS OF TREATMENT THEREWITH” (BeiGene, Ltd., priority 2022, published 2025).

This test has as its system pERK1/2(THR202/TYR204) level in AsPC-1 cells. The test can be described thus: pERK assay (HTRF) in AsPC-1 cell line. The format is cell-based. To be noted: Homo sapiens, ASPC1, 2 h, 2 h compound treatment. The protocol:
AsPC-1 cell line was used in this study. Cells were maintained in RPMI-1640 supplemented with 10% fetal bovine serum (Thermo Fisher), 50 units/mL penicillin and streptomycin (Thermo Fisher) and kept at 37° C. in a humidified atmosphere of 5% CO2 in air. Cells were reinstated from frozen stocks that were laid down within 30 passages from the original cells purchased. 30000 cells per well were seeded into a 96-well plate and incubated overnight. Cells were treated with a 10-point dilution series. The final compound concentration is from 0 to 10 μM. After 2 h compound treatment, cells were lysed, and the pERK1/2(THR202/TYR204) level in the cell lysates was detected by HTRF kit (Cisbio). In brief, a total of 16 μL of cell lysate from each well of a 96-well plate was transferred to a 384-well white assay plate. Lysate from each well was incubated with 2 μL of Eu3+-cryptate (donor) labeled anti-phospho-ERK1/2 and 2 μL of D2 (acceptor) labeled anti-phospho-ERK1/2 antibodies (Cisbio) overnight in dark at room temperature. When donor and acceptor are in close proximity, excitation of the donor with laser triggers a Fluorescence Resonance Energy Transfer (FRET) towards the acceptor, which in turn fluoresces at 655 nm wavelength. FRET signals were measured using a PHERAstar FSX reader (BMG Labtech). IC50 determination was performed by fitting the curve of percent inhibition versus the log of the inhibitor concentration using Dotmatics.

What is called IC50 is the concentration that inhibits the measured activity by half. Take `Cn1ccnc1N1CC(COc2nc(N3CC4CCC(C3)N4)c3cc(C(F)(F)F)c(-c4ccc(F)c5sc(N)c(C#N)c45)c(F)c3n2)C1` [Example 24, 4-(4-(3,8-diazabicyclo[3.2.1]octan-3-yl)-8-fluoro-2-((1-(1-methyl-1H-imidazol-2-yl)azetidin-3-yl)methoxy)-6-(trifluoromethyl)quinazolin-7-yl)-2-amino-7-fluorobenzo[b]thiophene-3-carbonitrile]: the IC50 worked out at 200 nM.

In turn, `N#Cc1c(N)sc2c(F)ccc(-c3c(C(F)(F)F)cc4c(N5CC6CCC(C5)N6)nc(OCC5(F)CCOC5)nc4c3F)c12` (centres unmarked) [Example 25, 4-(4-(3,8-diazabicyclo[3.2.1]octan-3-yl)-8-fluoro-2-((3-fluorotetra hydrofuran-3-yl)methoxy)-6-(trifluoromethyl)quinazolin-7-yl)-2-amino-7-fluoro benzo[b]thiophene-3-carbonitrile] came in with an IC50 of 201 nM.

For `N#Cc1c(N)sc2c(F)ccc(-c3c(C(F)(F)F)cc4c(N5CC6CCC(C5)N6)nc(OCC5(C(F)(F)F)CCOC5)nc4c3F)c12` (centres unmarked) [Example 26, 4-(4-(3,8-diazabicyclo[3.2.1]octan-3-yl)-8-fluoro-6-(trifluoromethyl)-2-((3-(trifluoromethyl)tetrahydrofuran-3-yl)methoxy)quinazolin-7-yl)-2-amino-7-fluorobenzo[b]thiophene-3-carbonitrile], the IC50 came to 1460 nM.

Turning to `CC1(O)COCC1COc1nc(N2CC3CCC(C2)N3)c2cc(C(F)(F)F)c(-c3ccc(F)c4sc(N)c(C#N)c34)c(F)c2n1` (centres unmarked) [Example 27, 4-(4-(3,8-diazabicyclo[3.2.1]octan-3-yl)-8-fluoro-2-((4-hydroxy-4-methyltetrahydrofuran-3-yl)methoxy)-6-(trifluoromethyl)quinazolin-7-yl)-2-amino-7-fluorobenzo[b]thiophene-3-carbonitrile], the IC50 was found to be 975 nM. The IC50 values of the last two molecules are within 1.5-fold of each other.

On to `COC1(COc2nc(N3CC4CCC(C3)N4)c3cc(C(F)(F)F)c(-c4ccc(F)c5sc(N)c(C#N)c45)c(F)c3n2)COC1` [Example 28, 4-(4-(3,8-diazabicyclo[3.2.1]octan-3-yl)-8-fluoro-2-((3-methoxyoxetan-3-yl)methoxy)-6-(trifluoromethyl)quinazolin-7-yl)-2-amino-7-fluorobenzo[b]thiophene-3-carbonitrile], for which the midpoint of inhibition, the IC50, lay at 78 nM.

`CC12CC(COc3nc(N4CC5CCC(C4)N5)c4cc(C(F)(F)F)c(-c5cc(O)cc6ccccc56)c(F)c4n3)(CO1)C2` [Example 29, 4-(4-(3,8-diazabicyclo[3.2.1]octan-3-yl)-8-fluoro-2-((1-methyl-2-oxabicyclo[2.1.1]hexan-4-yl)methoxy)-6-(trifluoromethyl)quinazolin-7-yl)naphthalen-2-ol] had a concentration for half-maximal inhibition (IC50) greater than 10000 nM.

On to `N#Cc1c(N)sc2c(F)ccc(-c3c(C(F)(F)F)cc4c(N5CC6CCC(C5)N6)nc(OCC56COC(C#N)(C5)C6)nc4c3F)c12` [Example 30, 4-(((7-(2-amino-3-cyano-7-fluorobenzo[b]thiophen-4-yl)-4-(3,8-diazabicyclo[3.2.1]octan-3-yl)-8-fluoro-6-(trifluoromethyl)quinazolin-2-yl)oxy)methyl)-2-oxabicyclo[2.1.1]hexane-1-carbonitrile], for which it took 71 nM to reach half-maximal inhibition (IC50). This lies in the double-digit nanomolar range.

Molecule `CC1(COc2nc(N3CC4CCC(C3)N4)c3cc(C(F)(F)F)c(-c4ccc(F)c5sc(N)c(C#N)c45)c(F)c3n2)CN(C(=O)C2CC2)C1` [Example 31, 4-(4-(3,8-diazabicyclo[3.2.1]octan-3-yl)-2-((1-(cyclopropanecarbonyl)-3-methylazetidin-3-yl)methoxy)-8-fluoro-6-(trifluoromethyl)quinazolin-7-yl)-2-amino-7-fluorobenzo[b]thiophene-3-carbonitrile] came in with an IC50 of 299 nM.

In turn, `CCC1(COc2nc(N3CC4CCC(C3)N4)c3cc(C(F)(F)F)c(-c4ccc(F)c5sc(N)c(C#N)c45)c(F)c3n2)COC1` [Example 32, 4-(4-(3,8-diazabicyclo[3.2.1]octan-3-yl)-2-((3-ethyloxetan-3-yl)methoxy)-8-fluoro-6-(trifluoromethyl)quinazolin-7-yl)-2-amino-7-fluorobenzo[b]thiophen-3-carbonitrile] showed an IC50 of 110 nM. Compared with the last molecule, the IC50 is about 2.7-fold lower.

For the molecule `N#Cc1c(N)sc2c(F)ccc(-c3c(C(F)(F)F)cc4c(N5CC6CCC(C5)N6)nc(OCC5CC6(COC6)C5)nc4c3F)c12` [Example 33, 4-(2-((2-oxaspiro[3.3]heptan-6-yl)methoxy)-4-(3,8-diazabicyclo [3.2.1]octan-3-yl)-8-fluoro-6-(trifluoromethyl)quinazolin-7-yl)-2-amino-7-fluoro benzo[b]thiophene-3-carbonitrile], the IC50 is 163 nM. The IC50 values of the last two molecules are within 1.5-fold of each other.

As to `CC(F)(F)C1(COc2nc(N3CC4CCC(C3)N4)c3cc(C(F)(F)F)c(-c4ccc(F)c5sc(N)c(C#N)c45)c(F)c3n2)COC1` [Example 34], 81 nM corresponded to half-maximal inhibition (IC50).

Molecule `N#CCC1(COc2nc(N3CC4CCC(C3)N4)c3cc(C(F)(F)F)c(-c4ccc(F)c5sc(N)c(C#N)c45)c(F)c3n2)CCOCC1` [Example 35, 4-(4-(3,8-diazabicyclo[3.2.1]octan-3-yl)-2-((4-(cyanomethyl)tetra hydro-2H-pyran-4-yl)methoxy)-8-fluoro-6-(trifluoromethyl)quinazolin-7-yl)-2-amino-7-fluorobenzo[b]thiophene-3-carbonitrile] returned an IC50 of 275 nM. Against the preceding molecule, the IC50 is about 3.4-fold higher.

Regarding `CC(=O)N1CC(F)(COc2nc(N3CC4CCC(C3)N4)c3cc(C(F)(F)F)c(-c4ccc(F)c5sc(N)c(C#N)c45)c(F)c3n2)C1` [Example 36, 4-(2-((1-acetyl-3-fluoroazetidin-3-yl)methoxy)-4-(−3,8-diazabicyclo[3.2.1]octan-3-yl)-8-fluoro-6-(trifluoromethyl)quinazolin-7-yl)-2-amino-7-fluorobenzo[b]thiophene-3-carbonitrile], half-maximal inhibition (IC50) required 250 nM.

As for `N#CCC1(COc2nc(N3CC4CCC(C3)N4)c3cc(C(F)(F)F)c(-c4ccc(F)c5sc(N)c(C#N)c45)c(F)c3n2)CCOC1` (centres unmarked) [Example 37, 4-(4-(3,8-diazabicyclo[3.2.1]octan-3-yl)-2-((3-(cyanomethyl)tetra hydrofuran-3-yl)methoxy)-8-fluoro-6-(trifluoromethyl)quinazolin-7-yl)-2-amino-7-fluorobenzo[h]thiophene-3-carbonitrile], the IC50 was found to be 119 nM.

`CC1(COc2nc(N3CC4CCC(C3)N4)c3cc(C(F)(F)F)c(-c4ccc(F)c5sc(N)c(C#N)c45)c(F)c3n2)CN(S(C)(=O)=O)C1` [Example 38, 4-(4-(3,8-diazabicyclo[3.2.1]octan-3-yl)-8-fluoro-2-((3-methyl-1-(methylsulfonyl)azetidin-3-yl)methoxy)-6-(trifluoromethyl)quinazolin-7-yl)-2-amino-7-fluorobenzo[b]thiophene-3-carbonitrile] returned an IC50 of 180 nM.

Turning to `COC1(COc2nc(N3CC4CCC(C3)N4)c3cc(C(F)(F)F)c(-c4ccc(F)c5sc(N)c(C#N)c45)c(F)c3n2)CN(C(C)=O)C1` [Example 39, 4-(2-((1-acetyl-3-methoxyazetidin-3-yl)methoxy)-4-(3,8-diazabicyclo [3.2.1]octan-3-yl)-8-fluoro-6-(trifluoromethyl)quinazolin-7-yl)-2-amino-7-fluorobenzo[b]thiophene-3-carbonitrile], the IC50 turned out to be 495 nM.

`CC(=O)N1CC2(COc3nc(N4CC5CCC(C4)N5)c4cc(C(F)(F)F)c(-c5ccc(F)c6sc(N)c(C#N)c56)c(F)c4n3)CC1C2` [Example 40, 4-(2-((2-acetyl-2-azabicyclo[2.1.1]hexan-4-yl)methoxy)-4-(3,8-diazabicyclo[3.2.1]octan-3-yl)-8-fluoro-6-(trifluoromethyl)quinazolin-7-yl)-2-amino-7-fluorobenzo[b]thiophene-3-carbonitrile] displayed an IC50 of 236 nM.

For `COCCNC1C[C@H]2CC[C@@H]1N2c1nc(OCC23COC(C2)C3)nc2c(F)c(-c3ccc(F)c4sc(N)c(C#N)c34)c(C(F)(F)F)cc12` (stereo partly drawn) [Example 41, 4-(2-((2-oxabicyclo[2.1.1]hexan-4-yl)methoxy)-8-fluoro-4-((1S,4R)-2-((2-methoxyethyl)amino)-7-azabicyclo[2.2.1]heptan-7-yl)-6-(trifluoromethyl)quinazolin-7-yl)-2-amino-7-fluorobenzo[b]thiophene-3-carbonitrile], the IC50 amounted to 860 nM.

`CC12CC(COc3nc(N4CC5CCC(C4)N5)c4ccc(-c5cc(O)cc6ccccc56)c(F)c4n3)(CO1)C2` [Example 42, 4-(4-(3,8-diazabicyclo[3.2.1]octan-3-yl)-8-fluoro-2-((1-methyl-2-oxabicyclo[2.1.1]hexan-4-yl)methoxy)quinazolin-7-yl)naphthalen-2-ol] gave an IC50 of 4340 nM.

With `N#Cc1c(N)sc2c(F)ccc(-c3c(C(F)(F)F)cc4c(N5CC6CCC(C5)N6)nc(OCC5(C(F)F)CCOCC5)nc4c3F)c12` [Example 43, 4-(4-(3,8-diazabicyclo[3.2.1]octan-3-yl)-2-((4-(difluoromethyl)tetrahydro-2H-pyran-4-yl)methoxy)-8-fluoro-6-(trifluoromethyl)quinazolin-7-yl)-2-amino-7-fluorobenzo[h]thiophene-3-carbonitrile], 479 nM corresponded to half-maximal inhibition (IC50).
